Earlier results in patent US5008416A, “Organogermanium compound, process for the preparation of same as well as use thereof” (Sanwa Kagaku Kenkyusho Co., Ltd., priority 1989, dated 1991).

How the values were obtained:
[1] = Jap. Pat. No. Sho 61-151123(A), U.S. Pat. No. 4,889,715, EP 0186505; cited from earlier work
[2] = Cancer Res., Vol. 42, page 2852 (1982); cited from earlier work

Compound | Immunomodulating activity (result in words) [1] | Anti-cancer or antitumor activity (result in words) [2]
3-oxygermylpropionic acid polymer | shows an excellent immunomodulating activity | –
C[CH2][Ge]1([CH2]C)[CH2]CC2(CCN(CCCN(C)C)C2)C[CH2]1 [Spirogermanium] | – | shows an anti-cancer or antitumor activity
